Results on one compound are retold here after PMC10377753, “Pharmacokinetic and pharmacodynamic properties of polymyxin B in Escherichia coli and Klebsiella pneumoniae murine infection models” (Journal of Antimicrobial Chemotherapy, 2023).

Where a name gives a salt, the structure may show the parent alone. Bridge positions count the residues as written; N and C are the ends. Square brackets hold non-standard residues; d marks the D form. Peptide text beside a SMILES is read from it. * marks the point of attachment. X1 = CC[C@H](C)CCCCC(=O)*; Dab = NCC[C@H](N)C(=O)O

Experiment [1] concerns E. coli isolates. In words: Dose-response study, thigh infection model, summary over E. coli isolates. The class given is in vivo, Escherichia coli. The protocol:
(§1) Experiments were carried out in the Erasmus Laboratory Animal Science Centre in Rotterdam, The Netherlands in accordance with the EU Animal Directive 2010/63/EU 2010 directive[14] (licence number AVD101002016702) as described before,[15] with approval of the institutional Animal Welfare Body. Outbred female CD-1 mice obtained from Charles River Germany, weighing 20–25 g, 7–8 weeks old, were used in the experiments. The mice were housed under standard conditions with drink and feed supplied ad libitum.
(§2) Mice were rendered neutropenic by intraperitoneal injection of cyclophosphamide of 150 and 100 mg/kg, 4 days and 1 day before infection, respectively. On the day of infection, an overnight culture of the bacteria was diluted in fresh CAMHB and incubated at 37°C for 1 or 2 h depending on the growth rate of the strain. After incubation the inoculum was diluted in CAMHB or saline for the thigh and lung infection model, respectively, in order to obtain approximately 5.0 × 10^7 cfu/mL. Mice were then infected intramuscularly in each thigh (thigh infection model) or intranasally under isoflurane anaesthesia (lung infection model), with 0.05 mL of inoculum containing approximately 2.5 × 10^6 bacteria. Analgesia was given in the form of buprenorphine directly after infection, every 12 h.
(§3) For dose–response studies, a 6 hourly dosing regimen of 1–32 mg/kg was studied in the thigh infection model. Mice were infected with E. coli […], 15, 51 or 71 or K. pneumoniae ATCC 43816, 17, 58 or 74.
(§4) Animals were humanely euthanized 24 h (t = 24 h) after the first dose, unless the welfare of the animals necessitated earlier termination, following animal welfare regulations. Excised thighs were transferred to a pre-cooled 14 mL polypropylene tube containing 2 mL of PBS and were homogenized using a T25 ULTRA-TURRAX (IKA-Werke GmbH & Co, Staufen, Germany). A 10-fold dilution series was prepared and 3 × 10 μL was plated per dilution. The following day, colonies were counted and the number of cfu per thigh was calculated.
(§5) The drug effect was determined by the difference between the log10 cfu values at t = 0 h (mean value of two mice) and t = 24 h (value of individual mice) expressed as Δlog10 cfu. The fAUC/MIC, fCmax/MIC and %fT>MIC were determined based on the simulated time–concentration profiles over 24 h as derived in MicLab 2.71 (MEDIMATICS, Maastricht, The Netherlands) using 200 points per dosing interval.
A sigmoid maximum effect (Emax) model was fitted to the PK/PD index versus Δlog10 cfu data by non-linear regression, and static or a 1 log or 2 log kill effect were determined using GraphPad Prism 8.0 (GraphPad, Inc., San Diego, CA, USA). A two-tailed unpaired t-test was performed in GraphPad Prism 8.0 to determine if there was a significant difference in the fAUC/MIC targets correlating with a static or a 1 log or 2 log decline, between E. coli and K. pneumoniae isolates.

The test system of experiment [2] is K. pneumoniae isolates. In words: Dose-response study, thigh infection model, summary over K. pneumoniae isolates. The conditions noted are these: mouse thigh infection. The class given is in vivo, Klebsiella pneumoniae. The method, then:
as §1, §2, §3, §4, §5
A sigmoid maximum effect (Emax) model was fitted to the PK/PD index versus Δlog10 cfu data by non-linear regression, and static or a 1 log or 2 log kill effect were determined using GraphPad Prism 8.0 (GraphPad, Inc., San Diego, CA, USA). […]

Experiment [3] concerns gram-negative pathogens. The conditions noted are these: previous studies; cited from earlier work. The protocol:
To determine whether these targets are achieved in humans, the PTAs for the 200 mg q24h dose were calculated. It is clear that the degree of protein binding is essential herein and more clarity on the protein binding in human plasma is needed before an optimal dosing regimen can be recommended, since for a highly protein-bound drug a small error on the fu would yield important PTA differences.

Setting [4] is: two E. coli isolates in which 1 log kill was found.

For the compound `CC[C@H](C)CCCCC(=O)N[C@@H](CCN)C(=O)N[C@H](C(=O)N[C@@H](CCN)C(=O)N[C@H]1CCNC(=O)[C@H]([C@@H](C)O)NC(=O)[C@H](CCN)NC(=O)[C@H](CCN)NC(=O)[C@H](CC(C)C)NC(=O)[C@@H](Cc2ccccc2)NC(=O)[C@H](CCN)NC1=O)[C@@H](C)O` [polymyxin B, Polymyxin B sulphate salt] (X1-[Dab]T[Dab][Dab][Dab][dF]L[Dab][Dab]T; lactam 4-C), the “Isolates in which 1 log kill was found” value in experiment [1] (E. coli isolates, mouse thigh infection) is given as 2/4; in experiment [2] (K. pneumoniae isolates), 1/4. For the same compound, the “Target value of fAUC/MIC, static effect, average” value in experiment [1] (average of four E. coli isolates, mouse thigh infection, q6h) is 64.3; in experiment [2] (average of four K. pneumoniae isolates, q6h), 22.4. For the same compound, the “Target value of fAUC/MIC, static effect, median” value in experiment [1] (median of four E. coli isolates, mouse thigh infection, q6h) is 63.5; in experiment [2] (median of four K. pneumoniae isolates, q6h) it was 11.6. Also, the “Target value of fAUC/MIC, static effect, range” value in experiment [1] (range over four E. coli isolates, mouse thigh infection, q6h) is given as 27.5–102.6; in experiment [2] (range over four K. pneumoniae isolates, q6h), 5.9–60.5. Also, in experiment [1] (setting [4]), the “fAUC/MIC for 1 log kill, median” value amounted to 50.6. For the same compound, the “fAUC/MIC for 1 log kill, range” value in experiment [1] (setting [4]) is 46.8–54.5. In experiment [3], the MIC90 was 0.5 to 1 µg/mL.
